One data set concerns rats and mice. In words: Toxicology tests, single-dose oral administration. The format is in vivo. Conditions: 2 g/kg carnitine mixture, 2 g/kg acetyl L-carnitine, 1 g/kg Hypericum extract (approx. 0.3% hypericin), 3 mg/kg hypericin, each alone.
The test system of data set [1] is cerebral (cortex) concentrations of serotonin (5-HT) and hydroxy-indole-acetic acid (5-HIAA). In words: Protective action against abnormal brain serotonin concentrations induced by fenfluramine. The format is in vivo, (Sprague-Dawley) male rats. The settings on record: CC 400 mg/kg, AC 400 mg/kg, HE 300 mg/kg, HYP 1 mg/kg, two weeks after treatment. The text has this:
Since changes in concentration of cerebral biogenic amines regulate both excitatory and depressive emotional behaviour states, it was decided, in view of the above-mentioned action of hypericin and Hypericum extracts at catecholamine and particularly serotoninergic receptor level and on the reuptake of serotonin itself, to evaluate changes in cerebral concentrations of serotonin after treatment with Hypericum extracts, hypericin, carnitine mixture or acetyl L-carnitine, alone or in various combinations, in conjunction with treatment with a substance such as fenfluramine, the neurotoxicity of which manifests itself also through a reduction in brain serotonin concentrations. It is well known, in fact, that fenfluramine [N-ethyl-α-methyl-m-(trifluoro-methyl)phenethylamine] exerts a neurotoxic action on the brain, which is identifiable both histologically on the basis of derangement of the cerebral serotoninergic structures and through depletion of serotonin concentrations in the brain.
The tests were conducted using a group of (Sprague-Dawley) male rats which were administered fenfluramine orally at the dose of 5 mg/kg twice daily for 5 days consecutively, either alone or at the same time, and for the same period, as a carnitine mixture (400 mg/kg) (consisting in a combination of L-carnitine+acetyl L-carnitine+propionyl L-carnitine+isovaleryl L-carnitine present in the same weight ratio to one another), or acetyl L-carnitine (400 mg/kg), or Hypericum extract (with a 0.3% hypericin content−300 mg/kg), or hypericin (1 mg/kg), or various combinations of these products at the same doses.
Two weeks after treatment, the animals were sacrificed and the cerebral cortex isolated and subjected to measurement of the cerebral content both of serotonin (5-HT) and of hydroxy-indole-acetic acid (5-HIAA) according to the method described by Wise (Wise, C. D., Anal. Biochem., 18, 94, 1967) and modified by Ricaurte (Ricaurte, G. A., J. Pharmacol. Exptl. Ther., 261, 616, 1992).

The subject of data set [2] is motor exploration activity in the mouse. In words: Exploratory activity in mice (Hole Board Test). The format is in vivo. Here is the method:
This reduction is not related to sedation caused by the drug in the animal and can be offset using anxiolytic agents.
Using the technique described by Boissier (Boissier J. R., Physiol. Behav., 2. 447. 1967), tests (Hole Board Test) were conducted in order in a group of mice to ascertain whether the reduction in motor exploration activity induced in the animals by low-dose amphetamine (1 mg/kg i.p.) could be corrected by the oral administration of a carnitine mixture (consisting of a combination of L-carnitine+acetyl L-carnitine+propionyl L-carnitine+isovaleryl L carnitine in the same weight ratio to one another), or of acetyl L-carnitine, or Hypericum extract, or hypericin, or various combinations of these products.

Data set [3] relates to mice descending from platform. In words: Platform Test in mice. The settings on record: ten animals per group, carnitine mixture or acetyl L-carnitine 400 mg/kg, Hypericum extract 300 mg/kg, hypericin 1 mg/kg; for % of mice descending from 5 cm: platform 5 cm from the ground; for % of mice descending from 9 cm: platform 9 cm from the ground. Type of data set: in vivo. The method, then:
Ten animals were used per group and the percentage of animals that managed to descend from the platform was calculated. […] It was modified even more by the administration of a combination of these products plus the carnitine mixture (L-carnitine+acetyl L-carnitine+propionyl L-carnitine+isovaleryl L-carnitine present in the same weight ratio to one another, making a total dose of 400 mg/kg) or acetyl L-carnitine 400 mg/kg, neither of which modifies the animals' behaviour when administered alone.

For data set [4], the system named is swimming-induced immobility in mice. In words: Immobility induced by forced swimming. The format is in vivo. Conditions: last four minutes of six, oral, two administrations six hours and three hours before. The source says:
One of the tests regarded as being most significant for assessing the activity of antidepressant substances is the forced swimming test in the mouse, which measures the changes in swimming-induced immobility which the various test substances produce (Borsini, F., Psychopharmacology, 94, 147, 1988). In these tests, the technique described by Persolt was adopted (Persolt, R. D., Eur. J. Pharmacol., 57, 201, 1979—Persolt, R. D., Arch. Int. Pharmacology, 229, 327, 1977) using ten […] per group. The animals were placed in beakers measuring 14 cm in height and approximately 12 cm in internal diameter which were filled with water (20-22° C.) up to 7.5 cm from the rim and then left there for six minutes. The duration of the immobility was calculated during the last four minutes. The mice were considered immobile when they performed only the movements necessary to keep themselves afloat on the water.
The substances tested were administered orally in two administrations six hours and three hours prior to the start of the experiment.

The subject of data set [5] is aggression of isolated male mice. In words: Isolation-induced aggression test. The settings on record: treated eight hours and half an hour before test, observation 180 seconds, carnitine mixture or acetyl L-carnitine 400 mg/kg, Hypericum extract 300 mg/kg, hypericin 1 mg/kg. The format is in vivo.
Text: This method consists in making the mice aggressive by keeping them isolated for twenty-one days in a cage and in assessing, after treatment, the latency time needed to trigger the aggression of the isolated animal when another animal is put in the cage with it. Only animals with latency times of less than 10 seconds before attacking were included in the tests, and the time of attack was taken as the time the isolated animal bit or tried to bite the other animal introduced into the cage.
The observation time was 180 seconds and the experiment was started 30 minutes after administration of the products tested. All isolated animals were treated, both eight hours and half an hour before the test, with carnitine mixture (consisting of a combination of L-carnitine+acetyl L-carnitine+propionyl L-carnitine+isovaleryl L-carnitine in an equiponderal ratio to one another) (400 mg/kg), or with acetyl L-carnitine (400 mg/kg) or with Hypericum extract (300 mg/kg) or with hypericin (1 mg/kg), or with various combinations of these products.
[6] abbreviates: product alone, oral, 5 days, FE 5 mg/kg twice daily.
Setting [7] is: together with fenfluramine (FE) 5 mg/kg oral twice daily for 5 days.
[8] abbreviates: oral treatment together with Amphetamine 1 mg/kg i.p., 30 minutes after amphetamine, CC 400 mg/kg, AC 400 mg/kg, HE 300 mg/kg, HYP 1 mg/kg.

For `Cc1cc(O)c2c(=O)c3c(O)cc(O)c4c5c(O)cc(O)c6c(=O)c7c(O)cc(C)c8c1c2c(c34)c(c78)c65` [Hypericin, 1,3,4,6,8,13-hexahydroxy-10,11-dimethylphenanthro[1,10,9,8-opqra]perylene-7,14-dione], the “toxic effects or mortality” value in the data set with rats and mice is listed as “lack of toxic effects or mortality”. In addition, in data set [1] (setting [6]), the “Cerebral (cortex) concentrations 5-HIAA” value amounted to 0.30 ± 0.030 ng/mg tissue and the “Cerebral (cortex) concentrations 5-HT” value turned out to be 0.36 ± 0.019 ng/mg tissue. Also, in data set [1] (setting [7]), the “Cerebral (cortex) concentrations 5-HIAA” value was 0.25 ± 0.018 ng/mg tissue and the “Cerebral (cortex) concentrations 5-HT” value was 0.28 ± 0.020 ng/mg tissue. Besides, the “Motor exploration activity, variations compared to controls” value in data set [2] (setting [8]) is −5. In data set [3], the “% of mice descending from 5 cm” value is reported as 90% and the “% of mice descending from 9 cm” value amounted to 30%. The Immobility time in data set [4] is 195 ± 5. Also, the “Latency time of attack” value in data set [5] was 100 ± 9 s.
Regarding `CC(N)Cc1ccccc1` (stereo not drawn) [Amphetamine, amphetamine], the “Motor exploration activity, variations compared to controls” value is reported as −45 in data set [2] (Amphetamine 1 mg/kg i.p. alone, 30 minutes after administration) and “+55” in data set [2] (Amphetamine 5 mg/kg i.p. alone, 30 minutes after administration).
`CCNC(C)Cc1cccc(C(F)(F)F)c1` (stereo not drawn) [FE, N-ethyl-α-methyl-m-(trifluoro-methyl)phenethylamine]: in data set [1] (setting [6]), the “Cerebral (cortex) concentrations 5-HIAA” value came out at 0.14 ± 0.011 ng/mg tissue and the “Cerebral (cortex) concentrations 5-HT” value worked out at 0.17 ± 0.010 ng/mg tissue.
`CC(=O)O[C@H](CC(=O)[O-])C[N+](C)(C)C` [Acetyl L-carnitine, acetyl L-carnitine]: in the data set with rats and mice, the “toxic effects or mortality” value is given as “lack of toxic effects or mortality”. Besides, in data set [1] (setting [6]), the “Cerebral (cortex) concentrations 5-HIAA” value is recorded as 0.28 ± 0.012 ng/mg tissue and the “Cerebral (cortex) concentrations 5-HT” value is reported as 0.35 ± 0.020 ng/mg tissue. Besides, in data set [1] (setting [7]), the “Cerebral (cortex) concentrations 5-HIAA” value came to 0.15 ± 0.019 ng/mg tissue and the “Cerebral (cortex) concentrations 5-HT” value amounted to 0.18 ± 0.011 ng/mg tissue. Moreover, the “Motor exploration activity, variations compared to controls” value in data set [2] (setting [8]) was −48. In data set [3], the “% of mice descending from 5 cm” value was 70% and the “% of mice descending from 9 cm” value is reported as 0%. Further, the Immobility time in data set [4] worked out at 204 ± 8. The “Latency time of attack” value in data set [5] amounted to 14 ± 3 s.

Source of the values: US6346282B1, “Neuroprotective composition for the prevention and/or treatment of nervous and behavioural alterations due to anxiety states or depression, comprising acetyl-L-carnitine and hypericin” (priority 1998, dated 2002).
